Data published in the NIST ThermoML archive (doi:10.1021/je060411g).
± gives the expanded uncertainty stated by the source.

Columns and labels:
[1] = Glass
[2] = molar heat capacity at constant pressure; details: 101.33 kPa

CC(C)CCO [3-methylbutan-1-ol]
Details | Glass transition temperature [°C]
[1] | -155 ± 3

[2]
Details | molar heat capacity at constant pressure [J/K/mol]
79.29 K, Glass | 64.16 ± 1.6
79.93 K, Glass | 64.23 ± 1.6
81.22 K, Glass | 65.13 ± 1.6
83.16 K, Glass | 66.6 ± 1.6
85.07 K, Glass | 67.98 ± 1.7
86.97 K, Glass | 69.22 ± 1.7
88.88 K, Glass | 70.53 ± 1.7
90.79 K, Glass | 71.96 ± 2.1
92.71 K, Glass | 73.36 ± 2.1
94.62 K, Glass | 74.71 ± 2.2
96.54 K, Glass | 76.12 ± 2.2
98.47 K, Glass | 77.7 ± 2.2
100.4 K, Glass | 79.43 ± 2.2
102.33 K, Glass | 80.27 ± 2.3
104.26 K, Glass | 81.54 ± 2.3
106.19 K, Glass | 83.08 ± 2.3
108.13 K, Glass | 84.68 ± 2.3
110.07 K, Glass | 86.19 ± 2.4
112.01 K, Glass | 87.96 ± 2.4
113.94 K, Glass | 90.43 ± 2.4
115.88 K, Glass | 94.62 ± 2.5
123.04 K, Liquid | 144.09 ± 3.5
124.93 K, Liquid | 144.11 ± 3.5
126.89 K, Liquid | 144.29 ± 3.5
128.85 K, Liquid | 144.62 ± 3.5
130.82 K, Liquid | 144.96 ± 3.5
132.79 K, Liquid | 145.22 ± 3.5
134.76 K, Liquid | 145.47 ± 3.5
136.73 K, Liquid | 145.74 ± 3.5
138.7 K, Liquid | 146.13 ± 3.5
140.67 K, Liquid | 146.33 ± 3.5
142.65 K, Liquid | 146.61 ± 3.5
144.62 K, Liquid | 146.82 ± 3.5
146.59 K, Liquid | 147.14 ± 3.5
148.57 K, Liquid | 147.5 ± 3.5
150.54 K, Liquid | 147.86 ± 3.5
152.52 K, Liquid | 148.08 ± 3.6
154.49 K, Liquid | 148.41 ± 3.6
156.46 K, Liquid | 148.76 ± 3.6
158.43 K, Liquid | 148.95 ± 3.6
160.41 K, Liquid | 149.4 ± 3.6
162.38 K, Liquid | 149.76 ± 3.6
164.35 K, Liquid | 149.96 ± 3.6
166.32 K, Liquid | 150.38 ± 3.6
168.29 K, Liquid | 150.9 ± 3.6
170.27 K, Liquid | 151.21 ± 3.6
172.24 K, Liquid | 151.76 ± 3.6
174.21 K, Liquid | 152.03 ± 3.6
176.19 K, Liquid | 152.42 ± 3.6
178.16 K, Liquid | 152.92 ± 3.6
180.14 K, Liquid | 153.49 ± 3.7
182.11 K, Liquid | 153.84 ± 3.7
184.09 K, Liquid | 154.42 ± 3.7
186.07 K, Liquid | 154.93 ± 3.7
188.05 K, Liquid | 155.51 ± 3.7
190.03 K, Liquid | 156.14 ± 3.7
192.01 K, Liquid | 156.62 ± 3.7
193.99 K, Liquid | 157.15 ± 3.7
195.96 K, Liquid | 157.72 ± 3.8
197.94 K, Liquid | 158.12 ± 3.8
199.92 K, Liquid | 158.79 ± 3.8
201.91 K, Liquid | 159.5 ± 3.8
